Source: patent publication US7803844B2, “Composition for preventing and/or treating bone disease, physiologically functional or health food containing thereof, and pharmaceutical containing thereof as active ingredients” (Erina Co. Inc., priority 2004, dated 2010)
Like-named read-outs stand apart in the source and are kept apart here.

Key:
MφRAW264 cells [1] = test: Proliferated cell number counting assay (XTT cell viability)
Description: As a non-RI method for determining cell proliferation and cell viability, color reaction by using XTT was employed. MφRAW264 cells were suspended in 10% FBS-MEM, and plated into the 96-well microplate at 0.4×10^4 cells/0.1 mL; then incubated for 1 day. Subsequently, 10% FBS-MEM solution of osteoclast differentiation factor (ODF/RANKL), 100 ng/mL, was added into 0.1 mL per well at final concentration of RANKL, 50 ng/mL. At the same time, honokiol solution at respective concentration was added into the wells. For the control wells, equal volume of methanol not including honokiol was added.
After 3 days incubation, the proliferated cells were counted by using commercially available Cell Proliferation Kit II (Roche Diagnostics Inc., Cat. No. 1 465 015) to obtain the cell viability. The procedure was carried out according to the instruction manual attached, and brief summaries were as follows.
XTT labeling reagent and electron coupling reagent included in the kit were mixed at the ratio of 50:1, and 50 μL of mixture was added per 0.1 mL of medium in each well; then reacted for 4 hours at 37° C. After the termination of the reaction, absorbance at 492 nm of the wave length was measured by using ELISA plate reader (Dainippon Pharma Co.), wherein the reference wave length was 690 nm.
In the above-mentioned (2-2), the same cell proliferation counting assay II was performed instead of honokiol to magnolol and their concentration used was at the range from 20 to 60 μM.

[2] = tested on: M-CSF dependent cells derived from mice bone marrow cells (BMM); test: Inhibition assay II of the early stage differentiation of osteoclast (TRAP activity); assay type: cell-based, mouse; settings: for IC50: Bone marrow cell, read-out: IC50, inhibition of differentiation from M-CSF dependent bone marrow cells to osteoclast induced by RANKL; for TRAP activity (control %): 1.5 days, honokiol 3-30 μM, magnolol 20-60 μM
Description: Mouse bone marrow cells were obtained from femurs and shanks of male ddy mice from 6 to 9 week age (Chubu Kagaku Shizai Co. Ltd.)
From 6 to 9 week ages of ddy mice, the femurs and shanks were excised. The bone row cells were extruded from these bones by using a syringe with 22 G×1 and ¼ gauge needle to obtain.
Obtained bone marrow cells were suspended in 10% FBS-MEM supplemented with 100 μg/mL of sodium streptomycin, 100 U/mL of sodium penicillin G, 50 ng/mL of M-CSF, and 1 ng/mL of TGF-β, and then inoculated to each well of the 96-well microplate at the cell concentration of 1×10^6 cells/0.1 mL/well. Then, the plates were incubated under the presence of 5% CO2, at 37° C.
After 3 days incubation, the culture medium was exchanged to that including 50 ng/mL of M-CSF and 50 ng/mL of osteoclast differentiation factor (DF/RANKL), simultaneously honokiol prepared as the same concentration as used in the example 1 was added. The medium of the control group was exchanged that including M-CSF and ODF/RANKL, but no honokiol. The plates were further incubated under the condition of the presence of 5% CO2, at 37° C.
After 1.5 days from the medium exchange, tartrate resistant acid phosphatase activity, the early stage differentiation marker, was measured. Medium in each well was discarded and washed plate with PBS, the cells in the well was fixed for 15 minutes by using 10% HCHO/PBS. Furthermore, the cells were fixed by using ethanol-acetone (1:1) mixture. After fixation, the fixed mixture was discarded and dried at room temperature. After drying, tartrate resistant acid phosphatase (TRAP) of the cells in each well was measured and stained similarly to those in the example 1.
The inhibition assay of the early stage differentiation of osteoclast was carried out similarly to the described above, except honokiol used in the above mentioned (3-2) was substituted to magnolol, and its concentration was from 20 to 60 μM.

acid phosphatase = settings: cited from earlier work
MφRAW264 cells [3] = test: Inhibition assay I of the early phase differentiation of osteoclast (TRAP activity); assay type: cell-based; settings: for TRAP activity (control %): MφRAW264 cells stimulated by 50 ng/mL ODF/RANKL, honokiol 3-30 μM, magnolol 20-60 μM; for IC50: Osteoclast, 72 h, read-out: IC50, inhibition of MφRAW264 cells to osteoclast by RANKL
Text: Macrophage RAW264 cell line (RIKEN. cell No. CB0535, herein below, referred to as “MφRAW264”), which may differentiate to osteoclast-like cells, was used in the inhibition assay of the early phase differentiation of osteoclast. α-MEM (Invitrogen Co., Cat. No. 11900-024) including 10% of fetal bovine serum (Asahi Technoglass Co., (IWAKI), Cat. No. IWK-500) was used for cultivating MφRAW264. Osteoclast differentiation factor (ODF/RANKL) was purchased from Pepro Tech Inc., Cat. No. 310-01. Inhibition assay I of the early phase differentiation of osteoclast was performed for evaluating the inhibition level of the bone resorption in vitro, the differentiation assay of osteoclast from MφRAW264 cells in early stage. Results of the osteoclast assay were evaluated by determining tartrate resistant acid phosphatase (TRAP) activity, an early stage differentiation marker, and TRAP staining. By using these two indices, activities of flavones from MφRAW264 cells to osteoclast are quantitatively evaluated. MφRAW264 cells were suspended in a α-MEM supplemented 10% of fetal bovine serum (FBS), which is referred to as “10% FBS-MEM herein below”, and plated at 1×10^5 cells/10 mL in 100 mm φ dishes. Then, the dishes were incubated under the presence of 5% of CO2, at 37° C. for 3 days. After confirmed that the plated cells in the dishes became confluent, the incubation was finished. Subsequently, when the cells became confluent, they were treated by using 0.05% of trypsin and Hank's balanced salt solution containing 0.53 mM of EDTA (0.05% Trypsin-0.53 mM EDTA/HBSS (Invitrogen Co., Cat. No. 25300-054) to scrape them, and then suspended in 10% FBS-MEM to plate 0.4×10^4 cells/0.1 mL per each well of 96-well microplates. Then, the plates were incubated one day under the same condition as described above. Osteoclast differentiation factor (ODF/RANKL) was dissolved in 10% FBS-MEM to prepare 100 ng/mL of solution. Alternatively, a stock solution of honokiol was prepared at the concentration of 10 mM in methanol, and stored at −20° C. […] Equal volume of methanol was solely added into the control wells. Honokiol used in the following experiments were the solutions having each concentration prepared as described above. […] Equal volume of methanol without honokiol was added into the control wells. […] Incubation medium in each well of the 96-well microplate was discarded. […] After drying, tartrate resistant acid phosphatase activity was determined (hereinafter, it is referred to as “TRAP assay”), and staining of cells in the well was performed. […] Thirty minutes later, the reaction was terminated by adding 0.1 mL of 0.1 M NaOH, and released p-nitrophenol was determined by the spectrophotometer (Dainippon Pharmaceutical Co. Ltd.) at wave length 405 nm. […]

[4] = tested on: M-CSF dependent cells derived from mice bone marrow cells (BMM); test: Cell proliferation counting assay (XTT) in bone marrow derived cells
Description: Alternatively, the cell proliferation counting assay was performed as the same as that in the example 1, the cell viability was obtained. In FIG. 2A, the cell viability was shown as white columns.

MC3T3-E1 cells [5] = test: Osteoblast differentiation induction assay, ALP activity; assay type: cell-based, mice; settings: 3 to 30 μM, 7 days
Description: As an evaluation method for the effect against the differentiation of osteoblast, MC3T3-E1 cell osteoblast differentiation induction assay was used. In the assay, the activity of alkaline phosphatase (ALP), the early stage differentiation marker enzyme of osteoblast, was determined, and the staining utilizing the activity (ALP staining) was performed. Expression level of osteocalcin, which is the marker of the differentiated osteoblast, was determined by using the EIA kit described above. Furthermore, in order to know the cytotoxicity, the cell viability was determined by using MTT assay. MC3T3-E1 cells were plated into the wells of the 96-well microplate at the concentration of 4×10^3 cells/well, and incubated two days under the presence of 5% of CO2, at 37° C. until cells became confluent in the well. […] The medium was exchanged every 3 or 4 days. ALP activity was determined as follows. At first, MC3T3-E1 cells were cultured for 7 days under the same condition as described above; then the medium was removed, and washed by using PBS. After that cells were fixed by using methanol and the dish was dried. […] The reaction was terminated by adding 100 μL of 0.1 N NaOH, and released p-nitrophenol was determined by measuring absorbance at the wave length of 405 nm, by using the plate reader for obtaining ALP activity. […]

MC3T3-E1 cells [6] = test: Osteoblast differentiation induction assay, osteocalcin concentration (EIA); assay type: cell-based, mice; settings: 3 to 30 μM, 14 days, culture supernatant
Description: As an evaluation method for the effect against the differentiation of osteoblast, MC3T3-E1 cell osteoblast differentiation induction assay was used. In the assay, the activity of alkaline phosphatase (ALP), the early stage differentiation marker enzyme of osteoblast, was determined, and the staining utilizing the activity (ALP staining) was performed. Expression level of osteocalcin, which is the marker of the differentiated osteoblast, was determined by using the EIA kit described above. Furthermore, in order to know the cytotoxicity, the cell viability was determined by using MTT assay. MC3T3-E1 cells were plated into the wells of the 96-well microplate at the concentration of 4×10^3 cells/well, and incubated two days under the presence of 5% of CO2, at 37° C. until cells became confluent in the well. […] The medium was exchanged every 3 or 4 days. In order to determine the concentration of osteocalcin, culture supernatant of MC3T3-E1 cells cultured for 14 days under the above-mentioned conditions was used. Amount of osteocalcin in the culture supernatant was determined according to the procedure written on an instruction manual attached to the EIA kit.

[7] = tested on: M-CSF dependent cells derived from mice bone marrow cells; test: Pit formation assay of mature osteoclast; assay type: cell-based, mouse; settings: 10 μM, 1 day, calcium phosphate apatite coated plate
Description: Alternatively, the bone marrow cells were obtained form the shanks and femurs from ddy mice of 6 to 9 week age, similarly to the methods employed in the example 3.
Obtained bone marrow cells were suspended in 10% FBS-MEM including 100 U/mL of sodium penicillin G, 100 μg/mL of streptomycin sulfate, 50 ng/mL of M-CSF, and 1 ng/mL of TGF-β. Then, the suspension was plated at 0.85×10^6 cells/0.1 mL/well into the 16 well multi slide plate (BioCoat Osteologic Bone Cell Culture System; BD Biosciences, Cat. No.: 354609) which was coated by calcium phosphate apatite, and incubated under the presence of 5% CO2, at 37° C.
After three days incubation, the medium was exchanged to that including 50 ng/mL of M-CSF and 100 ng/mL of osteoclast differentiation factor (ODF/RANKL). Subsequently, the plates were incubated under the same condition until the formation of actin ring, the osteoclast activated structure, was confirmed. After the actin ring was formed, honokiol prepared as the same concentration used in the example 1 is added, and incubated further one day. To the control group, the solvent without honokiol was added.
After 1 day incubation from the addition of honokiol, the medium in the well was discarded, and the plate was washed by using phosphate buffered saline (PBS); then, 0.1 mL of 0.1 M NaOH is added to every well to dissolve the cells in it. […]

MφRAW264 cells [8] = test: Actin ring formation assay I; assay type: cell-based; settings: 20 μM, 1 day after actin ring formation, MφRAW264 with ODF/RANKL and PD98059
Description: After that, 0.1 mL of the medium including 100 ng/mL of ODF/RANKL and 20 μM PD98059 was added, and further incubated under the same condition (final concentration of RANKL was 50 ng/mL, and that of PD98059 10 μM). In order to promote the differentiation to the activated osteoclast, two days after the addition of ODF/RANKL and PD98059, the medium was exchanged to that including 50 ng/mL of ODF/RANKL as described above; then the plate was incubated until the actin ring, the activated structure of osteoclast, formation was confirmed. After actin ring was formed, honokiol prepared as the same as that prepared in the example 1 was added, and cultured further one day. […] One day after when honokiol was added to culture, TRAP staining of the tartrate resistant acid phosphatase (TRAP) in each well, similarly o those performed.

MC3T3-E1 cells [9] = test: Cell viability after osteoblast differentiation induction (MTT assay); assay type: cell-based, mice; settings: 30 μM, 7 days
Description: As an evaluation method for the effect against the differentiation of osteoblast, MC3T3-E1 cell osteoblast differentiation induction assay was used. In the assay, the activity of alkaline phosphatase (ALP), the early stage differentiation marker enzyme of osteoblast, was determined, and the staining utilizing the activity (ALP staining) was performed. Expression level of osteocalcin, which is the marker of the differentiated osteoblast, was determined by using the EIA kit described above. Furthermore, in order to know the cytotoxicity, the cell viability was determined by using MTT assay. MC3T3-E1 cells were plated into the wells of the 96-well microplate at the concentration of 4×10^3 cells/well, and incubated two days under the presence of 5% of CO2, at 37° C. until cells became confluent in the well. […] The medium was exchanged every 3 or 4 days. In order to determine the cell viability, MC3T3-E1 cells were cultured for 7 days under the condition as described above. After that, MTT reagent was added into the well at the 1/10 volume of the medium in the well, and reacted for 1 hour at 37° C. Then, the medium was removed, and generated formazan was dissolved in DMSO; then its absorbance was measured by using microplate reader at the wave length of 570 nm (reference wave length was 630 nm).

[10] = mouse bone marrow M-CSF dependent cells, 50 ng/mL RANKL

IC50 [2, 10]	IC50 (MφRAW264 cells [3]; MφRAW264 cells, RANKL 50 ng/mL, 3 days)	SMILES	cell viability (ratio against control wells = 100) (MφRAW264 cells [1]; MφRAW264 cells, XTT, 3 days, honokiol 3-30 μM, magnolol 20-60 μM)	non-specific cytotoxicity to MφRAW264 cells (MφRAW264 cells [1]; XTT, 3 days)	IC50 ([2]; Mus musculus)	TRAP activity (control %) [2, 10]	inhibition activity of acid phosphatase (acid phosphatase)	TRAP activity (control %) (MφRAW264 cells [3]; 3 days)	IC50 (MφRAW264 cells [3])	non-specific cytotoxicity (XTT assay) ([4]; mouse bone marrow M-CSF dependent cells)	ALP activity (MC3T3-E1 cells [5])	non-specific cytotoxicity to MφRAW264 cells (MφRAW264 cells [1])	expression level of osteocalcin (MC3T3-E1 cells [6])	pit formation [7]	actin rings (activated structure of osteoclast) (MφRAW264 cells [8])	cell viability of MC3T3-E1 cells (MC3T3-E1 cells [9])	non-specific cytotoxicity (XTT assay) [4]
–	–	C=CCc1ccc(O)c(-c2cc(CC=C)ccc2O)c1 [magnolol]	seldom decreased	does not show non-specific cytotoxicity	30 µM	dose-dependently inhibited	has the inhibition activity of the acid phosphatase	dose-dependently inhibited	30 µM	did not show the non-specific cytotoxicity	–	–	–	–	–	–	–
10 µM	15 µM	C=CCc1ccc(O)c(-c2ccc(O)c(CC=C)c2)c1 [honokiol]	–	–	–	inhibited, depending on the dose	has the inhibition activity of the acid phosphatase	dose-dependently inhibited	–	–	enhanced in dose dependent manner	does not show non-specific cytotoxicity	enhanced	significantly decreased	destructed	slightly decreased	did not show non-specific cytotoxicity
